Patent US20250026769A1, “PAPD5 INHIBITORS AND METHODS OF USE THEREOF” (The Children's Medical Center Corporation, priority 2021, published 2025)
Where two headings read alike, the source gives them in different places.

Tests used:
[1] = test system: hepatitis B surface antigen (HBSAg) from HepG2.2.15 cells, a hepatitis B virus-expressing cell line; assay: HBsAg ELISA in supernatant of HepG2.2.15 cells; type: cell-based; details: HepG2.2.15, 96 h
Method in brief: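 HepG2.2.15 cells plated at 50,000/well, then exposed the next day to 3-fold compound dilutions from 100 μM to 333 pM, with DMSO vehicle as control. After 4 days at 37 °C, HBsAg in the supernatant was measured by ELISA. IC50 obtained by nonlinear fitting of averaged replicates.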

[2] = test system: TERC 3′ ends in human CD19+ cells recovered from mice xenotransplanted with HSPCs; assay: TERC 3′ end processing in vivo in human CD19+ cells after xenotransplantation into NBSGW mice; set-up: species or system immunodeficient NBSGW mice with human HSPCs
Source text: (§1) Example 168—Restoration of TERC 3′ end processing in vivo in human blood cells after xenotransplantation into immunodeficient mice. To determine the efficacy of orally administered exemplified compounds in primary human HSPCs and blood cells in restoring TERC processing in vivo, highly-efficient CRISPR-Cas9 ribonucleoprotein transduction was employed to disrupt the PARN gene in primary human CD34+ HSPCs or the control locus AAVS1. These genome-edited human HSPCs were xenotransplanted into immunodeficient NOD,B6.SCID Il2rg−/− KitW4l/W41 (NBSGW) mice, which engraft human HSPCs without exposure to radiation or chemotherapy. Six to ten weeks after xenotransplantation, exemplified compounds were administered for 4 to 7 days alongside controls. Thereafter, human hematopoietic cells were recovered from mouse bone marrow, and engraftment was analyzed by flow cytometry. Engrafted human hematopoietic cells were sorted for lineage markers, and CD19+ cells were used for analysis of restoration of TERC 3′ end processing by RNA-ligation mediated 3′ RACE.

rPAPD5 = biological target: T1, rPAPD5 (Homo sapiens, UniProt Q8NDF8); assay: differential scanning fluorimetry (DSF) binding and stabilization of rPAPD5; details: for ΔTm at 100 µM: 100 μM test compound, read-out: ΔTm at 100 μM; for ΔTm at 1 µM: read-out: ΔTm at 1 μM
T1 construct: made in house
T1 sequence (Q8NDF8 68-698 isoform Q8NDF8-5 limits assumed): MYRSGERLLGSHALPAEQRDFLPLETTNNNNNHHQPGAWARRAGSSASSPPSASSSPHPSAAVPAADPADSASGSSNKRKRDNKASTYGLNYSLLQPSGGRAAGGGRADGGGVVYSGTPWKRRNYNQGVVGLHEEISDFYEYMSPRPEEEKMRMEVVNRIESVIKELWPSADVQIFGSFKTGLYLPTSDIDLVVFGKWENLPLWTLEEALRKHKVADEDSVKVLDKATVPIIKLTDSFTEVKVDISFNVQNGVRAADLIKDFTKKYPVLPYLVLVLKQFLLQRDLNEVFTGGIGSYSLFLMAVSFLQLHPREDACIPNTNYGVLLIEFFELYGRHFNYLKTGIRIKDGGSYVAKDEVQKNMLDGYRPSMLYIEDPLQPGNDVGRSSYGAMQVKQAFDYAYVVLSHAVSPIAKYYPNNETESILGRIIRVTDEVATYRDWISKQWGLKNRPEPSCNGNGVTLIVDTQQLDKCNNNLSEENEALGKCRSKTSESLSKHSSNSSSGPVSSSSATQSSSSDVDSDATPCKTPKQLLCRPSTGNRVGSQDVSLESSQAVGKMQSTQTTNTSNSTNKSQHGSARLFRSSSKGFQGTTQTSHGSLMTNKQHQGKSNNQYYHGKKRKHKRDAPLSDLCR
Method in brief: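 Differential scanning fluorimetry was used to measure how test compounds bind and thermally stabilize rPAPD5. The reaction contained SYPRO orange dye diluted 1:5000 in […] of buffer with […], 25 mM Tris-HCl, 5 mM MgCl2 and 50 mM KCl. ΔTm was calculated relative to a DMSO control.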

[3] = test system: engraftment of CD45+, CD19+, CD34+ human blood cells; assay: engraftment of human blood cells in xenotransplanted mice by flow cytometry; type: in vivo, immunodeficient NBSGW mice with human HSPCs
Source text: as §1

[4] = test system: telomere length in DC patient iPSCs; assay: telomere length / telomere elongation in DC patient iPSCs; type: cell-based, human; details: Homo sapiens, iPSC, read-out: iPSC-based Telomere length
Protocol: Compound 266A had activity ˜2-logs higher in the in vitro RNA oligoadenylation assay compared to the parental compound cmpd. 1, approximating the activity of RG7834 (FIG. 7). […] 1. Compounds 295A and 296A had activity 2-3 logs higher in DC patient iPSCs, showing TERC maturation at 1 nM, similar to RG7834 (FIG. 6). […] Referring to Table 1D, “+” refers to activity at 1 μM, “++” refers to activity above 1 nM and below 1 μM, and “+++” refers to activity at <1 nM, “ND” refers to not determined.

[5] = test system: TERC 3′ end processing in DC patient iPSCs; assay: TERC 3′ end processing by RACE in DC patient / PARN-mutant iPSCs; type: cell-based, human; details: Homo sapiens, iPSC, read-out: iPSC-based RACE activity
Method in brief: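 Activity binned by concentration giving effect in DC patient iPSCs: "+" at 1 μM, "++" above 1 nM and below 1 μM, "+++" below 1 nM; ND, not determined.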

[6] = test system: TERC 3′ end processing in primary CD34+ human hematopoietic stem and progenitor cells (HSPCs); assay: TERC 3′ end processing (RACE) in CRISPR/Cas9-engineered PARN-deficient primary CD34+ HSPCs; type: cell-based; details: for TERC 3′ end processing by RACE at 100 nM: day 5 (FIG. 40B); for TERC 3′ end processing by RACE at 1 μM: day 5 (FIG. 40A)
Source text: Example 167—Restoration of TERC 3′ end processing in primary CD34+ human hematopoietic stem and progenitor cells (HSPCs). To determine the efficacy of exemplified compounds in a disease-relevant stem cell population, we employed a highly-efficient CRISPR-Cas9 ribonucleoprotein transduction strategy to disrupt the PARN gene in primary human CD34+ hematopoietic stem and progenitor cells (HSPCs), or the control locus AAVS1. FIGS. 40A and 40B show extended TERC forms in CRISPR-Cas9 engineered HSPCs deficient in PARN.

[7] = 32 mg/kg/dose twice daily for 11 doses (FIG. 41D)
[8] = 32 mg/kg/dose twice daily for 11 doses
[9] = patient iPSCs, concentration class at which activity is seen
[10] = 10 μM test compound (Table 2a), read-out: ΔTm at 10 μM
[11] = 10 μM test compound, shift vs DMSO control, read-out: ΔTm (Table 2, starred: the compound was tested at 10 μM)

| SMILES | IC50 [1] | TERC 3′ ends in human CD19+ cells (RACE) [2, 7] | ΔTm at 100 µM (rPAPD5; shift vs DMSO control) | engraftment of CD45+, CD19+, CD34+ human blood cells [3, 8] | minimal effective concentration [4, 9] | minimal effective concentration [5, 9] | ΔTm at 1 µM (rPAPD5; 1 μM test compound (Table 2a)) | ΔTm at 10 µM (rPAPD5; [10]) | ΔTm at 10 µM (rPAPD5; [11]) | TERC 3′ end processing by RACE at 100 nM [6] | TERC 3′ end processing by RACE at 1 μM [6] | minimal effective concentration [4] | minimal effective concentration [5] | ΔTm at 10 µM (rPAPD5; read-out: ΔTm (Table 2, starred: the compound was tested at 10 μM)) | ΔTm at 1 µM (rPAPD5) | ΔTm at 10 µM (rPAPD5; read-out: ΔTm at 10 μM) | TERC 3′ ends in human CD19+ cells (RACE) ([2]; 32 mg/kg/dose every other day for 4 days (FIG. 41B)) | aberrant TERC oligo-adenylation in xenotransplanted PARN-deficient human blood cells ([2]; oral, 32 mg/kg/dose every other day for 4 days, RACE amplicon sequencing) | engraftment of CD45+, CD19+, CD34+ human blood cells ([3]; 32 mg/kg/dose every other day for 4 days) |
| --- | --- | --- | --- | --- | --- | --- | --- | --- | --- | --- | --- | --- | --- | --- | --- | --- | --- | --- | --- |
| O=C(O)c1cc(Cl)ccc1Nc1c(C2=CCOCC2)cnc2ccc(Cl)cc12 [Compound 297A, 5-chloro-2-[[6-chloro-3-(3,6-dihydro-2H-pyran-4-yl)-4-quinolyl]amino]benzoic acid] | 42 nM | maturation of TERC 3′ ends | > 5 °C | no change in engraftment |  |  |  |  |  |  |  |  |  |  |  |  |  |  |  |
| O=C(O)c1cc(Cl)ccc1Nc1c(N2CCC(F)(F)CC2)cnc2ccc(Cl)cc12 [Compound 340A, 5-chloro-2-[[6-chloro-3-(4,4-difluoro-1-piperidyl)-4-quinolyl]amino]benzoic acid] | 50 nM |  |  |  | < 0.001 µM | < 0.001 µM | > 5 °C | > 5 °C | > 5 °C | maturation of TERC 3′ end processing | maturation of TERC 3′ end processing |  |  |  |  |  |  |  |  |
| Cc1cc(Cl)cc2c(Nc3ccc(Cl)cc3C(=O)O)c(S(=O)(=O)N3CCSCC3)cnc12 [Compound 417A, 5-chloro-2-[(6-chloro-8-methyl-3-thiomorpholinosulfonyl-4-quinolyl)amino]benzoic acid] | 71 nM |  |  |  |  |  |  |  |  |  | maturation of TERC 3′ end processing | < 0.001 µM | < 0.001 µM | > 5 °C | > 5 °C | > 5 °C |  |  |  |
| O=C(O)c1cc(Cl)ccc1Nc1c(N2CCC(F)CC2)cnc2ccc(Cl)cc12 [Compound 392A, 5-chloro-2-[[6-chloro-3-(4-fluoro-1-piperidyl)-4-quinolyl]amino]benzoic acid] | 95 nM | maturation of TERC 3′ ends |  | no change in engraftment | < 0.001 µM | < 0.001 µM | > 5 °C | > 5 °C | > 5 °C | maturation of TERC 3′ end processing | maturation of TERC 3′ end processing |  |  |  |  |  |  |  |  |
| O=C(O)c1cc(Cl)ccc1Nc1c(N2CCC(Cl)CC2)cnc2ccc(Cl)cc12 [Compound 393A, 5-chloro-2-((6-chloro-3-(4-chloropiperidin-1-yl)quinolin-4-yl)amino)benzoic acid] | 282 nM |  |  |  | < 0.001 µM | < 0.001 µM | > 5 °C | > 5 °C | > 5 °C | maturation of TERC 3′ end processing |  |  |  |  |  |  |  |  |  |
| O=C1CCC(c2cnc3ccc(Cl)cc3c2Nc2ccc(Cl)cc2C(=O)O)CC1 [Compound 404A, 5-chloro-2-[[6-chloro-3-(4-oxocyclohexyl)-4-quinolyl]amino]benzoic acid] | 35 nM |  |  |  | < 0.001 µM | < 0.001 µM | > 5 °C | > 5 °C | > 5 °C | maturation of TERC 3′ end processing |  |  |  |  |  |  |  |  |  |
| O=C(O)c1cc(Cl)ccc1Nc1c(S(=O)(=O)N2CCSCC2)cnc2c(Cl)cc(Cl)cc12 [Compound 420A, 5-chloro-2-[(6,8-dichloro-3-thiomorpholinosulfonyl-4-quinolyl)amino]benzoic acid] | 100 nM |  |  |  | < 0.001 µM | < 0.001 µM | > 5 °C | > 5 °C | > 5 °C |  | maturation of TERC 3′ end processing |  |  |  |  |  |  |  |  |
| O=C(O)c1cc(Cl)ccc1Nc1c(C2=CCC(F)(F)CC2)cnc2ccc(Cl)cc12 [Compound 344A, 5-chloro-2-[[6-chloro-3-(4,4-difluorocyclohexen-1-yl)-4-quinolyl]amino]benzoic acid] | 600 nM |  |  |  | < 0.001 µM | < 0.001 µM | > 5 °C | > 5 °C | > 5 °C |  |  |  |  |  |  |  | maturation of TERC 3′ ends | significantly reversed | no change in engraftment |
| O=C(O)c1cc(Cl)ccc1Nc1c(CN2CCOCC2)cnc2ccc(Cl)cc12 [Compound 371A, 5-chloro-2-[[6-chloro-3-(morpholinomethyl)-4-quinolyl]amino]benzoic acid] | 145 nM |  | > 5 °C |  | < 0.001 µM | 0.001 to 1 µM | > 5 °C | > 5 °C |  | maturation of TERC 3′ end processing | maturation of TERC 3′ end processing |  |  |  |  |  |  |  |  |
| O=C(O)c1cc(Cl)ccc1Nc1c(CN2CCSCC2)cnc2ccc(Cl)cc12 [Compound 428A, 5-chloro-2-[[6-chloro-3-(thiomorpholinomethyl)-4-quinolyl]amino]benzoic acid] | 22 nM |  | > 5 °C |  | < 0.001 µM | < 0.001 µM | > 5 °C | > 5 °C |  |  | maturation of TERC 3′ end processing |  |  |  |  |  |  |  |  |
